ChEMBL document CHEMBL3407452, “Linear and branched alkyl-esters and amides of gallic acid and other (mono-, di- and tri-) hydroxy benzoyl derivatives as promising anti-HCV inhibitors” (Eur J Med Chem, 2015)
pEC50: −log10 of the molar value. Activity calls are given as the source filed them. The calls are words filed in the database; no cut-off is given here.

Assays:
Hepatitis C virus = assay: Antiviral activity against HCV genotype 1b I389luc-ubi-neo/NS3-3'/5.1 replicons infected in human Huh5-2 HCV subgenomic replicon-containing cells assessed as reduction in virus replication after 3 days by luciferase reporter gene assay; format: functional, Hepacivirus hominis; conditions: for EC90: Hepacivirus hominis
[1] = test system: Human immunodeficiency virus 1; assay: Antiviral activity against HIV1 3B infected in human CEM cells assessed as reduction in virus-induced cytopathicity after 4 to 5 days by microscopy based syncytium cell formation assay; format: functional, organism-based, CCRF-CEM; conditions: for EC50: ccrf-cem; for pEC50: Human immunodeficiency virus 1, 3B, CCRF-CEM, read-out: EC50
[2] = test system: Human immunodeficiency virus 2; assay: Antiviral activity against HIV2 ROD infected in human CEM cells assessed as reduction in virus-induced cytopathicity after 4 to 5 days by microscopy based syncytium cell formation assay; format: functional, organism-based, ISOLATE ROD, CCRF-CEM; conditions: for EC50: ccrf-cem; for pEC50: Human immunodeficiency virus 2, ISOLATE ROD, CCRF-CEM, read-out: EC50
[3] = Cytotoxicity against human CEM cells assessed as inhibition of cell proliferation; format: cell-based; conditions: CEM cells (CCRF-CEM)
Vaccinia virus = assay: Antiviral activity against vaccinia virus; format: functional, organism-based; conditions: Orthopoxvirus vaccinia
Coxsackievirus B4 = assay: Antiviral activity against human coxsackievirus B4; format: functional, organism-based
Human respirovirus 3 = assay: Antiviral activity against human parainfluenza virus 3; format: functional, organism-based
Chikungunya virus = assay: Antiviral activity against chikungunya virus; format: functional
Reovirus sp. = assay: Antiviral activity against reovirus; format: functional, organism-based
Punta Toro virus = assay: Antiviral activity against punta toro virus; format: functional, organism-based
Felid alphaherpesvirus 1 = assay: Antiviral activity against feline herpesvirus; format: functional, organism-based
[4] = test system: Vesicular stomatitis virus; assay: Antiviral activity against vesicular stomatitis virus; format: functional, organism-based
[5] = test system: Respiratory syncytial virus; assay: Antiviral activity against RSV; format: functional, organism-based
Sindbis virus = assay: Antiviral activity against sindbis virus; format: functional, organism-based
Feline coronavirus = assay: Antiviral activity against feline coronavirus; format: functional, organism-based
Influenza A virus H3N2 = assay: Antiviral activity against influenza A virus H3N2; format: functional, organism-based
Influenza A virus = assay: Antiviral activity against influenza A virus (H1N1); format: functional, organism-based

SMILES | EC50 (Hepatitis C virus) | EC90 (Hepatitis C virus) | EC50 [1] | EC50 [2] | other results
COc1cc(C(=O)NCCN(CCN(CCN(CCNC(=O)c2cc(OC)c(OC)c(OC)c2)C(=O)c2cc(OC)c(OC)c(OC)c2)C(=O)c2cc(OC)c(OC)c(OC)c2)C(=O)c2cc(OC)c(OC)c(OC)c2)cc(OC)c1OC | Not Active | inactive | Not Active | Not Active | 
COc1cccc(C(=O)NCCNC(=O)c2cccc(OC)c2OC)c1OC | Not Active | inactive | Not Active | Not Active | 
C[C@H](Cn1cnc2c(N)ncnc21)OCP(=O)(O)O [TENOFOVIR ANHYDROUS] |  |  |  |  | CC50 [3]: > 100 µM
O=C(NCCNC(=O)c1cccc(O)c1O)c1cccc(O)c1O |  |  |  |  | Activity (Vaccinia virus): inactive; pEC50 [1]: < 5.00; Activity (Coxsackievirus B4): inactive; Activity (Human respirovirus 3): inactive; Activity (Chikungunya virus): inactive; Activity (Reovirus sp.): inactive; Activity (Punta Toro virus): inactive; Activity (Felid alphaherpesvirus 1): inactive; pEC50 [2]: < 5.00; CC50 [3]: 19 µM; Activity [4]: inactive; Activity [5]: inactive; Activity (Sindbis virus): inactive; Activity (Feline coronavirus): inactive; Activity (Influenza A virus H3N2): inactive; Activity (Influenza A virus): inactive
COc1cccc(C(=O)NCCCCCCCCCCCCNC(=O)c2cccc(OC)c2OC)c1OC | Not Active | inactive | Not Active | Not Active | 
O=C(NCCN(CCNC(=O)c1ccc(OCc2ccccc2)c(OCc2ccccc2)c1OCc1ccccc1)CCNC(=O)c1ccc(OCc2ccccc2)c(OCc2ccccc2)c1OCc1ccccc1)c1ccc(OCc2ccccc2)c(OCc2ccccc2)c1OCc1ccccc1 | Not Active | inactive | Not Active | Not Active | 
O=C(NCCCCNC(=O)c1cccc(O)c1O)c1cccc(O)c1O |  |  |  |  | Activity (Vaccinia virus): inactive; pEC50 [1]: < 5.70; Activity (Coxsackievirus B4): inactive; Activity (Human respirovirus 3): inactive; Activity (Chikungunya virus): inactive; Activity (Reovirus sp.): inactive; Activity (Punta Toro virus): inactive; Activity (Felid alphaherpesvirus 1): inactive; CC50 [3]: 5.2 µM; Activity [4]: inactive; Activity [5]: inactive; Activity (Sindbis virus): inactive; Activity (Feline coronavirus): inactive; Activity (Influenza A virus H3N2): inactive; Activity (Influenza A virus): inactive
O=C(NCCCCCCNC(=O)c1ccc(OCc2ccccc2)c(OCc2ccccc2)c1OCc1ccccc1)c1ccc(OCc2ccccc2)c(OCc2ccccc2)c1OCc1ccccc1 | Not Active | inactive | Not Active | Not Active | 
COc1cc(C(=O)NCCCCNC(=O)c2cc(OC)c(OC)c(OC)c2)cc(OC)c1OC | Not Active | inactive | Not Active | Not Active | 
COc1cc(C(=O)NCCN(CCNC(=O)c2cc(OC)c(OC)c(OC)c2)CCNC(=O)c2cc(OC)c(OC)c(OC)c2)cc(OC)c1OC | Not Active | inactive | Not Active | Not Active | 
COc1cc(C(=O)NCCN(CCNC(=O)c2cc(OC)c(OC)c(OC)c2)C(=O)c2cc(OC)c(OC)c(OC)c2)cc(OC)c1OC | Not Active | inactive | Not Active | Not Active | 
O=C(NCCCCCCCCCCNC(=O)c1ccc(OCc2ccccc2)c(OCc2ccccc2)c1OCc1ccccc1)c1ccc(OCc2ccccc2)c(OCc2ccccc2)c1OCc1ccccc1 | Not Active | inactive | Not Active | Not Active | 
O=C(NCCCCCCCCCCCCNC(=O)c1ccc(OCc2ccccc2)c(OCc2ccccc2)c1OCc1ccccc1)c1ccc(OCc2ccccc2)c(OCc2ccccc2)c1OCc1ccccc1 | Not Active | inactive | Not Active | Not Active | 
O=C(NCCNC(=O)c1ccccc1O)c1ccccc1O |  |  |  |  | Activity (Vaccinia virus): inactive; pEC50 [1]: < 5.00; Activity (Coxsackievirus B4): inactive; Activity (Human respirovirus 3): inactive; Activity (Chikungunya virus): inactive; Activity (Reovirus sp.): inactive; Activity (Punta Toro virus): inactive; Activity (Felid alphaherpesvirus 1): inactive; pEC50 [2]: < 5.00; CC50 [3]: 25 µM; Activity [4]: inactive; Activity [5]: inactive; Activity (Sindbis virus): inactive; Activity (Feline coronavirus): inactive; Activity (Influenza A virus H3N2): inactive; Activity (Influenza A virus): inactive
O=C(NCCN(CCNC(=O)c1cc(O)c(O)c(O)c1)C(=O)c1cc(O)c(O)c(O)c1)c1cc(O)c(O)c(O)c1 |  |  |  |  | Activity (Vaccinia virus): inactive; pEC50 [1]: < 5.00; Activity (Coxsackievirus B4): inactive; Activity (Human respirovirus 3): inactive; Activity (Chikungunya virus): inactive; Activity (Reovirus sp.): inactive; Activity (Punta Toro virus): inactive; Activity (Felid alphaherpesvirus 1): inactive; pEC50 [2]: < 5.00; CC50 [3]: 34 µM; Activity [4]: inactive; Activity [5]: inactive; Activity (Sindbis virus): inactive; Activity (Feline coronavirus): inactive; Activity (Influenza A virus H3N2): inactive; Activity (Influenza A virus): inactive
COc1cc(C(=O)NCCCCCCCCCCNC(=O)c2cc(OC)c(OC)c(OC)c2)cc(OC)c1OC | Not Active | inactive | Not Active | Not Active | 
O=C(NCCCCN(CCCNC(=O)c1ccc(OCc2ccccc2)c(OCc2ccccc2)c1OCc1ccccc1)C(=O)c1ccc(OCc2ccccc2)c(OCc2ccccc2)c1OCc1ccccc1)c1ccc(OCc2ccccc2)c(OCc2ccccc2)c1OCc1ccccc1 | Not Active | inactive | Not Active | Not Active | 
COc1cc(C(=O)NCCCCCCNC(=O)c2cc(OC)c(OC)c(OC)c2)cc(OC)c1OC | Not Active | inactive | Not Active | Not Active | 
O=C(NCCCOCCOCCOCCCNC(=O)c1ccc(OCc2ccccc2)c(OCc2ccccc2)c1OCc1ccccc1)c1ccc(OCc2ccccc2)c(OCc2ccccc2)c1OCc1ccccc1 | Not Active | inactive | Not Active | Not Active | 
O=C(NCCNC(=O)c1ccccc1OCc1ccccc1)c1ccccc1OCc1ccccc1 | Not Active | inactive | Not Active | Not Active | 
CCCCCCCCOC(=O)c1cc(O)c(O)c(O)c1 [OCTYL_GALLATE] |  |  |  |  | Activity (Vaccinia virus): inactive; pEC50 [1]: < 5.70; Activity (Coxsackievirus B4): inactive; Activity (Human respirovirus 3): inactive; Activity (Chikungunya virus): inactive; Activity (Reovirus sp.): inactive; Activity (Punta Toro virus): inactive; Activity (Felid alphaherpesvirus 1): inactive; pEC50 [2]: < 5.70; CC50 [3]: 11 µM; Activity [4]: inactive; Activity [5]: inactive; Activity (Sindbis virus): inactive; Activity (Feline coronavirus): inactive; Activity (Influenza A virus H3N2): inactive; Activity (Influenza A virus): inactive
O=C(NCCCCNC(=O)c1ccc(OCc2ccccc2)c(OCc2ccccc2)c1OCc1ccccc1)c1ccc(OCc2ccccc2)c(OCc2ccccc2)c1OCc1ccccc1 | Not Active | inactive | Not Active | Not Active | 
O=C(NCCCCNC(=O)c1ccccc1OCc1ccccc1)c1ccccc1OCc1ccccc1 | Not Active | inactive | Not Active | Not Active | 
COc1cc(C(=O)NCCCCCCCCNC(=O)c2cc(OC)c(OC)c(OC)c2)cc(OC)c1OC | Not Active | inactive | Not Active | Not Active | 
COc1cc(C(=O)NCCCCCCCCCCCCNC(=O)c2cc(OC)c(OC)c(OC)c2)cc(OC)c1OC | Not Active | inactive | Not Active | Not Active | 
COc1cc(C(=O)NCCCCN(CCCNC(=O)c2cc(OC)c(OC)c(OC)c2)C(=O)c2cc(OC)c(OC)c(OC)c2)cc(OC)c1OC | Not Active | inactive | Not Active | Not Active | 
COc1cccc(C(=O)NCCCCNC(=O)c2cccc(OC)c2OC)c1OC | Not Active | inactive | Not Active | Not Active | 
O=C(NCCCCCCCCCCCCNC(=O)c1ccccc1OCc1ccccc1)c1ccccc1OCc1ccccc1 | Not Active | inactive | Not Active | Not Active | 
CN[C@@H]1[C@H](O[C@@H]2OC[C@@H](O)[C@H](O)[C@H]2O)[C@@H](O)[C@H](O[C@H]2c3cc(C)c(C(=O)N[C@H](C)C(=O)O)c(O)c3-c3c(cc4c(c3O)C(=O)c3cc(OC)cc(O)c3C4=O)[C@@H]2O)O[C@@H]1C [PRADIMICIN A] |  |  |  |  | pEC50 [1]: 5.48; CC50 [3]: > 100 µM
O=C(NCCCCCCCCNC(=O)c1ccc(OCc2ccccc2)c(OCc2ccccc2)c1OCc1ccccc1)c1ccc(OCc2ccccc2)c(OCc2ccccc2)c1OCc1ccccc1 | Not Active | inactive | Not Active | Not Active | 
